{"source": "patent US10821115B2", "about": "“Compounds that inhibit Mcl-1 protein” (priority 2017, dated 2020)", "test_system": "human multiple myeloma cell line, OPM-2", "assay": "Cell viability assay (OPM-2 10 FBS), CellTiter-Glo", "type": "cell-based", "summary_of_the_method": "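IC50 values come from 4-parameter logistic fits of luminescence signals reflecting cell viability. Treatment lasted 16 h at 37 °C in complete medium with 10% FBS, starting from 3000 cells/well.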", "key": {"[1]": {"conditions": "Homo sapiens, OPM-2, 16 h, read-out: OPM-2 10% FBS IC50 IP, OPM-2 cells, 10% FBS, 16 h incubation"}, "[2]": {"conditions": "read-out: OPM-2 10% FBS IC50 IP, OPM-2 cells, 10% FBS, 16 h, CellTiter-Glo"}, "[3]": {"conditions": "Homo sapiens, OPM-2, 16 h, read-out: OPM-2 10% FBS IC50 IP, OPM-2 cells, 10% FBS, 16 h, CellTiter-Glo"}}, "note": "Where two headings read alike, the source gives them in different places.", "data": [{"smiles": "CCO[C@@]1(CN2CCN3CCOC[C@@H]3C2)/C=C/C[C@H](C)[C@@H](CCOC)S(=O)(=O)NC(=O)c2ccc3c(n2)N(C[C@@H]2CC[C@H]21)C[C@@]1(CCCc2cc(Cl)ccc21)CO3", "note": "[Example 369, (1S,3′R,6′R,7′S,8′E,11′S,12′R)-6-chloro-7′-ethoxy-7′-((9aS)-hexahydropyrazino[2,1-c][1,4]oxazin-8(1H)-ylmethyl)-12′-(2-methoxyethyl)-11′-methyl-3,4-dihydro-2H,15′H-spiro[naphthalene-1,22′-[20]oxa[13]thia[1,14,25]triazatetracyclo [14.7.2.0~3,6~.0~19,24~]pentacosa[8,16,18,24]tetraen]-15′-one 13′,13′-dioxide]", "values": [{"measurement": "IC50", "setting": "[1]", "result": 71, "unit": "nM"}]}, {"smiles": "CCO[C@@]1(CN2CCN3CCCC[C@@H]3C2)/C=C/C[C@H](C)[C@@H](CCOC)S(=O)(=O)NC(=O)c2ccc3c(n2)N(C[C@@H]2CC[C@H]21)C[C@@]1(CCCc2cc(Cl)ccc21)CO3", "note": "[Example 370, (1S,3′R,6′R,7′S,8′E,11′S,12′R)-6-chloro-7′-ethoxy-12′-(2-methoxyethyl)-11′-methyl-7′-((9aR)-octahydro-2H-pyrido[1,2-a]pyrazin-2-ylmethyl)-3,4-dihydro-2H,15′H-spiro[naphthalene-1,22′-[20]oxa[13]thia[1,14,25]triazatetracyclo [14.7.2.0~3,6~.0~19,24~]pentacosa[8,16,18,24]tetraen]-15′-one 13′,13′-dioxide]", "values": [{"measurement": "IC50", "setting": "[1]", "result": 369, "unit": "nM"}]}, {"smiles": "CCO[C@]1(CN2CCN3CCOC[C@@H]3C2)CCC[C@H](C)[C@@H](CCOC)S(=O)(=O)NC(=O)c2ccc3c(c2)N(C[C@@H]2CC[C@H]21)C[C@@]1(CCCc2ccccc21)CO3", "note": "[Example 517, (1S,3′R,6′R,7′R,11′S,12′R)-7′-ethoxy-7′-((9aS)-hexahydropyrazino[2,1-c][1,4]oxazin-8(1H)-ylmethyl)-12′-(2-methoxyethyl)-11′-methyl-3,4-dihydro-2H, 15′H-spiro[naphthalene-1,22′-[20]oxa[13]thia[1,14]diazatetracyclo[14.7.2.0-3,6˜.0˜19,24˜]pentacosa[16,18,24]trien]-15′-one 13′,13′-dioxide]", "values": [{"measurement": "IC50", "setting": "read-out: OPM-2 10% FBS IC50 IP, OPM-2 cells, 10% FBS, 16 h incubation", "result": 252, "unit": "nM"}]}, {"smiles": "CO[C@@]1(CC(=O)N(C)C)/C=C/C[C@H](C)[C@@H](C)S(=O)(=O)NC(=O)c2ccc3c(c2)N(C[C@@H]2CC[C@H]21)C[C@@]1(CCCc2cc(Cl)ccc21)CO3", "note": "[Example 100135, 2-((1S,3′R,6′R,7′S,8′E,11′S,12′R)-6-chloro-7′-methoxy-11′,12′-dimethyl-13′,13′-dioxido-15′-oxo-3,4-dihydro-2H-spiro[naphthalene-1,22′-[20]oxa[13]thia[1,14]diazatetracyclo [14.7.2.0~3,6~.0~19,24~]pentacosa[8,16,18,24]tetraen]-7′-yl)-N,N-dimethylacetamide]", "values": [{"measurement": "IC50", "setting": "[2]", "result": 161, "unit": "nM"}]}, {"smiles": "C[C@@H]1[C@@H](C)CCC[C@@](O)(CC(=O)N2CCC2)[C@@H]2CC[C@H]2CN2C[C@@]3(CCCc4cc(Cl)ccc43)COc3ccc(cc32)C(=O)NS1(=O)=O", "note": "[Example 100144, (1S,3′R,6′R,7′R,11′S,12′R)-7′-(2-(1-azetidinyl)-2-oxoethyl)-6-chloro-7′-hydroxy-11′,12′-dimethyl-3,4-dihydro-2H,15′H-spiro[naphthalene-1,22′-[20]oxa[13]thia[1,14]diazatetracyclo [14.7.2.0~3,6~.0~19,24~]pentacosa[16,18,24]trien]-15′-one 13′,13′-dioxide]", "values": [{"measurement": "IC50", "setting": "[2]", "result": 208, "unit": "nM"}]}, {"smiles": "C[C@@H]1[C@@H](C)C/C=C/[C@@](O)(C#C[Si](C)(C)C)[C@@H]2CC[C@H]2CN2C[C@@]3(CCCc4cc(Cl)ccc43)COc3ccc(cc32)C(=O)NS1(=O)=O", "note": "[Example 100240, (1S,3′R,6′R,7′S,8′E,11′S,12′R)-6-chloro-7′-hydroxy-11′,12′-dimethyl-7′-((trimethylsilyl)ethynyl)-3,4-dihydro-2H,15′H-spiro[naphthalene-1,22′-[20]oxa[13]thia[1,14]diazatetracyclo [14.7.2.0~3,6~.0~19,24~]pentacosa[8,16,18,24]tetraen]-15′-one 13′,13′-dioxide]", "values": [{"measurement": "IC50", "setting": "[2]", "result": 266, "unit": "nM"}]}, {"smiles": "C[C@@H]1[C@@H](C)C/C=C/[C@@](O)(C#C[Si](C)(C)C)[C@@H]2CC[C@H]2CN2C[C@@]3(CCCc4cc(Cl)ccc43)COc3ccc(cc32)C(=O)NS1(=O)=O", "note": "[Example 100243, (1S,3′R,6′R,7′S,8′E,11′S,12′R)-6-chloro-7′-hydroxy-11′,12′-dimethyl-7′-((trimethylsilyl)ethynyl)-3,4-dihydro-2H,15′H-spiro[naphthalene-1,22′-[20]oxa[13]thia[1,14]diazatetracyclo [14.7.2.0~3,6~.0~19,24~]pentacosa[8,16,18,24]tetraen]-15′-one 13′,13′-dioxide]", "values": [{"measurement": "IC50", "setting": "[2]", "result": 8670, "unit": "nM"}]}, {"smiles": "CO[C@]1(c2cccnc2F)/C=C/C[C@H](C)[C@@H](C)S(=O)(=O)NC(=O)c2ccc3c(c2)N(C[C@@H]2CC[C@H]21)C[C@@]1(CCCc2cc(Cl)ccc21)CO3", "note": "[Example 100324, (1S,3′R,6′R,7′R,8′E,11′S,12′R)-6-chloro-7′-(2-fluoro-3-pyridinyl)-7′-methoxy-11′,12′-dimethyl-3,4-dihydro-2H,15′H-spiro[naphthalene-1,22′-[20]oxa[13]thia[1,14]diazatetracyclo [14.7.2.0~3,6~.0~19,24~]pentacosa[8,16,18,24]tetraen]-15′-one 13′,13′-dioxide]", "values": [{"measurement": "IC50", "setting": "[2]", "result": 1170, "unit": "nM"}]}, {"smiles": "CO[C@]1(c2cccnc2F)/C=C/C[C@H](C)[C@@H](C)S(=O)(=O)NC(=O)c2ccc3c(c2)N(C[C@@H]2CC[C@H]21)C[C@@]1(CCCc2cc(Cl)ccc21)CO3", "note": "[Example 100325, (1S,3′R,6′R,7′R,8′E,11′S,12′R)-6-chloro-7′-(2-fluoro-3-pyridinyl)-7′-methoxy-11′,12′-dimethyl-3,4-dihydro-2H,15′H-spiro[naphthalene-1,22′-[20]oxa[13]thia[1,14]diazatetracyclo [14.7.2.0~3,6~.0~19,24~]pentacosa[8,16,18,24]tetraen]-15′-one 13′,13′-dioxide]", "values": [{"measurement": "IC50", "setting": "[2]", "result": 482, "unit": "nM"}]}, {"smiles": "CO[C@]1(c2cccc(F)n2)/C=C/C[C@H](C)[C@@H](C)S(=O)(=O)NC(=O)c2ccc3c(c2)N(C[C@@H]2CC[C@H]21)C[C@@]1(CCCc2cc(Cl)ccc21)CO3", "note": "[Example 100340, (1S,3′R,6′R,7′R,8′E,11′S,12′R)-6-chloro-7′-(6-fluoro-2-pyridinyl)-7′-methoxy-11′,12′-dimethyl-3,4-dihydro-2H,15′H-spiro[naphthalene-1,22′-[20]oxa[13]thia[1,14]diazatetracyclo [14.7.2.0~3,6~.0~19,24~]pentacosa[8,16,18,24]tetraen]-15′-one 13′,13′-dioxide]", "values": [{"measurement": "IC50", "setting": "[3]", "result": 308, "unit": "nM"}]}, {"smiles": "C[C@@H]1[C@@H](C)CCC[C@@](CO)(CN2CCOCC2)[C@@H]2CC[C@H]2CN2C[C@@]3(CCCc4cc(Cl)ccc43)COc3ccc(cc32)C(=O)NS1(=O)=O", "note": "[Example 100341, (1S,3′R,6′R,7′S,11′S,12′R)-6-chloro-7′-(hydroxymethyl)-11′,12′-dimethyl-7′-(4-morpholinylmethyl)-3,4-dihydro-2H,15′H-spiro[naphthalene-1,22′-[20]oxa[13]thia[1,14]diazatetracyclo [14.7.2.0~3,6~.0~19,24~]pentacosa[16,18,24]trien]-15′-one 13′,13′-dioxide]", "values": [{"measurement": "IC50", "setting": "[3]", "result": 1940, "unit": "nM"}]}, {"smiles": "CCN(CC)C(=O)C[C@]1(OC)/C=C/C[C@H](C)[C@@H](C)S(=O)(=O)NC(=O)c2ccc3c(c2)N(C[C@@H]2CC[C@H]21)C[C@@]1(CCCc2cc(Cl)ccc21)CO3", "note": "[Example 100347, 2-((1S,3′R,6′R,7′S,8′E,11′S,12′R)-6-chloro-7′-methoxy-11′,12′-dimethyl-13′,13′-dioxido-15′-oxo-3,4-dihydro-2H-spiro[naphthalene-1,22′-[20]oxa[13]thia[1,14]diazatetracyclo [14.7.2.0~3,6~.0~19,24~]pentacosa[8,16,18,24]tetraen]-7′-yl)-N,N-diethylacetamide]", "values": [{"measurement": "IC50", "setting": "[3]", "result": 1080, "unit": "nM"}]}, {"smiles": "CO[C@@]1(CC(=O)N(C)C2CC2)/C=C/C[C@H](C)[C@@H](C)S(=O)(=O)NC(=O)c2ccc3c(c2)N(C[C@@H]2CC[C@H]21)C[C@@]1(CCCc2cc(Cl)ccc21)CO3", "note": "[Example 100374, 2-((1S,3′R,6′R,7′S,8′E,11′S,12′R)-6-chloro-7′-methoxy-11′,12′-dimethyl-13′,13′-dioxido-15′-oxo-3,4-dihydro-2H-spiro[naphthalene-1,22′-[20]oxa[13]thia[1,14]diazatetracyclo [14.7.2.0~3,6~.0~19,24~]pentacosa[8,16,18,24]tetraen]-7′-yl)-N-cyclopropyl-N-methylacetamide]", "values": [{"measurement": "IC50", "setting": "[3]", "result": 433, "unit": "nM"}]}, {"smiles": "C[C@@H]1[C@@H](C)CCC[C@](CO)(CN2CCOCC2)[C@@H]2CC[C@H]2CN2C[C@@]3(CCCc4cc(Cl)ccc43)COc3ccc(cc32)C(=O)NS1(=O)=O", "note": "[Example 100406, (1S,3′R,6′R,7′R,11′S,12′R)-6-chloro-7′-(hydroxymethyl)-11′,12′-dimethyl-7′-(4-morpholinylmethyl)-3,4-dihydro-2H,15′H-spiro[naphthalene-1,22′-[20]oxa[13]thia[1,14]diazatetracyclo [14.7.2.0~3,6~.0~19,24~]pentacosa[16,18,24]trien]-15′-one 13′,13′-dioxide]", "values": [{"measurement": "IC50", "setting": "[3]", "result": 747, "unit": "nM"}]}, {"smiles": "C[C@@H]1[C@@H](C)C/C=C/[C@](O)(c2ccc(F)nc2)[C@@H]2CC[C@H]2CN2C[C@@]3(CCCc4cc(Cl)ccc43)COc3ccc(cc32)C(=O)NS1(=O)=O", "note": "[Example 100420, (1S,3′R,6′R,7′R,8′E,11′S,12′R)-6-chloro-7′-(6-fluoro-3-pyridinyl)-7′-hydroxy-11′,12′-dimethyl-3,4-dihydro-2H,15′H-spiro[naphthalene-1,22′-[20]oxa[13]thia[1,14]diazatetracyclo [14.7.2.0~3,6~.0~19,24~]pentacosa[8,16,18,24]tetraen]-15′-one 13′,13′-dioxide]", "values": [{"measurement": "IC50", "setting": "[3]", "result": 161, "unit": "nM"}]}]}
